Test results: BindingDB's records for doi:10.1021/cb300655w (Massachusetts Institute of Technology, 2013)

Experiments:
[1] = biological target: T1, Serine/threonine-protein kinase receptor R3 (Mus musculus, UniProt Q61288)
T1 sequence (Q61288 whole entry): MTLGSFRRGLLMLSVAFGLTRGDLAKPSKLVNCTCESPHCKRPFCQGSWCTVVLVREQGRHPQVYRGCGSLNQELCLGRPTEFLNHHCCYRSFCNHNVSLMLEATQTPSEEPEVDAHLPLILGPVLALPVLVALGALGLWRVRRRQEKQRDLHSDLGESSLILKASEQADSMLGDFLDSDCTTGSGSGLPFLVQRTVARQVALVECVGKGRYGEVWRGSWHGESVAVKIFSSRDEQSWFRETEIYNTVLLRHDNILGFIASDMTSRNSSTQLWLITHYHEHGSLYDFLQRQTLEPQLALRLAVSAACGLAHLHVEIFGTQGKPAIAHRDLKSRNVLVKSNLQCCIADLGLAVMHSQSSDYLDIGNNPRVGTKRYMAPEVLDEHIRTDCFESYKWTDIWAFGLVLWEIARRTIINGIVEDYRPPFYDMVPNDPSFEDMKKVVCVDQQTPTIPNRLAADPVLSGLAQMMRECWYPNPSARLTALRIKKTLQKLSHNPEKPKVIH

[2] = biological target: Bone morphogenetic protein receptor type-1A (Mus musculus, UniProt P36895)
[3] = biological target: T2, Activin receptor type-1B (Mus musculus, UniProt Q61271)
T2 sequence (Q61271 whole entry): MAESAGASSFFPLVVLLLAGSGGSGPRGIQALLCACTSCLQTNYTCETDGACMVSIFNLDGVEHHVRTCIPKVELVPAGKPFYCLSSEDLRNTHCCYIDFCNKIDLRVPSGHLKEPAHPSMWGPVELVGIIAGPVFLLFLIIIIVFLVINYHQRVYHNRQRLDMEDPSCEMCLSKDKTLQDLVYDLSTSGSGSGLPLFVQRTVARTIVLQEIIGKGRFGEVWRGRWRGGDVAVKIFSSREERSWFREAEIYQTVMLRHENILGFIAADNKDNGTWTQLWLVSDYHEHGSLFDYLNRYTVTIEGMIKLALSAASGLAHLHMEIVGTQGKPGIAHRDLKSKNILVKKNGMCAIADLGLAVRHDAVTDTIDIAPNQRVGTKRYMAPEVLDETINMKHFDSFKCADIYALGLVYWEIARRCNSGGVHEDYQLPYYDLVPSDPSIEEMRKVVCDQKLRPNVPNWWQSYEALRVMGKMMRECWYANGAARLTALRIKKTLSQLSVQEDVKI

[4] = biological target: T3, TGF-beta receptor type-1 (Mus musculus, UniProt Q64729)
T3 sequence (Q64729 whole entry): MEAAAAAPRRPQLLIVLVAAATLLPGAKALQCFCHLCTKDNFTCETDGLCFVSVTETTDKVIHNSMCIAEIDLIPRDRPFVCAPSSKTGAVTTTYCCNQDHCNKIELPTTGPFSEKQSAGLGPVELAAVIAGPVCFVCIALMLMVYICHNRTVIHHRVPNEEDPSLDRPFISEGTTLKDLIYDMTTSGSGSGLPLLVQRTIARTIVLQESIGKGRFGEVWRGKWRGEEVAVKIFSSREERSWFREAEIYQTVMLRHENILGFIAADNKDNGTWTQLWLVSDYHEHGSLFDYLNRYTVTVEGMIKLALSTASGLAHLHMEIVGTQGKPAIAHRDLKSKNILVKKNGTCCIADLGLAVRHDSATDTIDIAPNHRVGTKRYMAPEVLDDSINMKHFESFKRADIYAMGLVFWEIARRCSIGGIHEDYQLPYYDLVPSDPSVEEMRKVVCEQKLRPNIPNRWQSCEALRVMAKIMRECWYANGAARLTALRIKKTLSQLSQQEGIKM

[5] = biological target: T4, Activin receptor type-1 (Mus musculus, UniProt P37172)
T4 sequence (P37172 whole entry): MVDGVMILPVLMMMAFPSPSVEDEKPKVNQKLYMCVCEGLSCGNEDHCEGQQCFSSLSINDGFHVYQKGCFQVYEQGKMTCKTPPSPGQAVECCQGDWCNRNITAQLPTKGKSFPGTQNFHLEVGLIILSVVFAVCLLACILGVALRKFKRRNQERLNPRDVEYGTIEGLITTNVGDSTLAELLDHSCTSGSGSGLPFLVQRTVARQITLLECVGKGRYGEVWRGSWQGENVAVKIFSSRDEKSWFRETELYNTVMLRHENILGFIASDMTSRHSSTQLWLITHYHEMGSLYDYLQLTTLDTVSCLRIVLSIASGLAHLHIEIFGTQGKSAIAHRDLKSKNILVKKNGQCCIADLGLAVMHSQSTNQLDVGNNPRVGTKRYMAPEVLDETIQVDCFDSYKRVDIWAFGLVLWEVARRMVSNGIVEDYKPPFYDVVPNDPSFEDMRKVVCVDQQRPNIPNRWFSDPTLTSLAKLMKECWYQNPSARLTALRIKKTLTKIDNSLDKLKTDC

Chain of Bone morphogenetic protein receptor type-1A (P36895 whole entry): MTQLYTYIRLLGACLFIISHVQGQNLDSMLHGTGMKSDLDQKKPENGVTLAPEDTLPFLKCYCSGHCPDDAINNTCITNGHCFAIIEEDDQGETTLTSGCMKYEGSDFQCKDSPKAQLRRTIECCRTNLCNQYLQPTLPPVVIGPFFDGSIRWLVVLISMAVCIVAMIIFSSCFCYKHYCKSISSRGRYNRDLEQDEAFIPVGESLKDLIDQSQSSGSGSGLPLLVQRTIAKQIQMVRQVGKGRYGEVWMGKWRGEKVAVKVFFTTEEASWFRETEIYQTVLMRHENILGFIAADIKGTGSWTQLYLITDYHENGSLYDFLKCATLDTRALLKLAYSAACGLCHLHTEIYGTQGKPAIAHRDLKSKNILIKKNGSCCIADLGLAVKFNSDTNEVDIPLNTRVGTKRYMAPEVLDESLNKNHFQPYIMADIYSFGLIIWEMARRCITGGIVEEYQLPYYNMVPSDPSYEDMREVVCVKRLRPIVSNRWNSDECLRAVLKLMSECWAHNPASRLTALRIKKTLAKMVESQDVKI

SMILES | IC50 [1] [nM] | IC50 [2] [nM] | IC50 [3] [nM] | IC50 [4] [nM] | IC50 [5] [nM]
c1cc(-c2cnn3cc(-c4ccc(OCCN5CCCCC5)cc4)cnc23)ccn1 | 19.5 | 222 | 3080 | 7830 | –
CC(C)Oc1ccc(-c2cnc3c(-c4ccnc5ccccc45)cnn3c2)cc1 [4-(6-(4-isopropoxyphenyl)pyrazolo[1,5-a]pyrimidin-3-yl)quinoline] | 77.9 | 241 | 11000 | 5970 | 12.6
COc1cc(-c2cc(-c3cccc(O)c3)cnc2N)cc(OC)c1OC [K02288a] | 3.65 | 25.8 | – | – | –
c1ccc2c(-c3cnn4cc(-c5ccc(N6CCNCC6)cc5)cnc34)ccnc2c1 [LDN-193189] | 1.48 | 14.3 | – | 117 | –
c1cc(-c2cnn3cc(-c4ccc(N5CCNCC5)cc4)cnc23)c2cccnc2c1 [LDN-212854] | 2.4 | 85.8 | 2130 | 9280 | –
